# Laboratory results from patent US5710145A, “Protein kinase C inhibitor” (priority 1996, dated 1998).
# Structures can show the parent of a compound that is named as a salt.
# What was measured:
# physchem = format: physicochemical; conditions: for pH (saturated aq Solution): saturated aqueous solution
# Procedure: The aqueous solubility of each salt was determined by UV analysis (Table II) and compared. […] The high pH observed with the succinate and acetate salt indicated the presence of untitrated free base.
# [1] = Hygroscopicity of salts at relative humidities; format: physicochemical; conditions: for Hygroscopicity, RH 27%: 27% RH; for Hygroscopicity, RH 35%: 35% RH; for Hygroscopicity, RH 65%: 65% RH; for Hygroscopicity, RH 80%: 80% RH
# Procedure: (§1) The salts were examined for hygroscopicity at relative humidities (RH) of 27%, 35%, 65% and 80% and are depicted in Table IV. The samples were subjected to vacuum initially to establish a reference point for the RH data. The amount of water contained in each salt was also determined by Karl-Fisher (coulometric).
# [2] = Thermogravimetric analysis (TGA) of salts; format: physicochemical; conditions: for TGA weight loss 20-100° C.: heated 20-100° C.; for TGA weight loss 100-200° C.: heated 100-200° C.
# Procedure: Each salt was analyzed by TGA, DSC and Mettler hot stage microscopy and compared (Table III). […] The samples were also examined by hot stage microscopy using a Mettler hot stage.
# [3] = Karl-Fisher (coulometric) water content of salts; format: physicochemical
# Procedure: as §1
# Protein Kinase C = assay: Protein kinase C inhibitor activity / selectivity (Calcium Calmodulin Dependent Protein Kinase, Casein Protein Kinase II, cAMP-Dependent Protein Kinase Catalytic Subunit and Protein-Tyrosine Kinase assays); format: biochemical
# Procedure: As previously stated, the compound of the present invention are active as selective Protein Kinase C inhibitors. The activity of compound is disclosed in Heath et al., EP 0 657 458, published on Jun. 14, 1995. The activity was determined in the Calcium Calmodulin Dependent Protein Kinase Assay, Casein Protein Kinase II assay, cAMP-Dependent Protein Kinase Catalytic Subunit assay and the Protein-Tyrosine Kinase assay. […] Conditions recognized in the art include: diabetes mellitus and its complications (including retinopathy, neuropathy and nephropathy), ischemia, inflammation, central nervous system disorders, cardiovascular disease, Alzheimer's disease, dermatological disease and cancer.
# [4] = Oral bioavailability of HCl and mesylate salts in dogs, single 20 mg/kg dose, cross-over; format: in vivo, Male Beagle Dogs
# Procedure: Because the hydrochloride salt is the most common pharmaceutical salt and is specifically disclosed in Heath et al., EP 0 657 458, published on Jun. 14, 1995 (Example 5), a biological comparison of the mesylate and HCl salt was carried out. […] The bioavailability of the salt forms was measured in four Male Beagle Dogs by orally administering a single 20 mg/kg dose of the HCl and the claimed mesylate salt in a 10% acacia suspension. One week washout period was allowed between doses. Doses were administered in a cross-over design (2 dogs/salt/study dog). The plasma concentration of the active compound as well as an active metabolite was monitored. […] This represents an approximately 260% increase in plasma concentration of the compound and the metabolite.
# The plasma concentration of the compound as well as the metabolite was also plotted as a function of time during the study. The ratio of the area under the concentration curve (AUC) represents a measure of bioavailability of the compound to the patient. The AUC ratio for the HCl salt and the claimed mesylate was calculated and is depicted in Table VI.
Compound,pH (saturated aq Solution) (physchem),Aqueous solubility (base) (physchem; water) [μg base/mL H2 O],Aqueous solubility (salt) (physchem; water) [μg salt/mL H2 O],"Hygroscopicity, RH 27% [1] [wt % initial]","Hygroscopicity, RH 35% [1] [wt % initial]","Hygroscopicity, RH 65% [1] [wt % initial]","Hygroscopicity, RH 80% [1] [wt % initial]","Hygroscopicity, Vacuum [1] [wt % initial]",TGA weight loss 20-100° C. [2] [% wt loss],TGA weight loss 100-200° C. [2] [% wt loss],K. F. (Karl-Fisher water) [3] [%],other results
CN(C)C[C@@H]1CCn2cc(c3ccccc32)C2=C(C(=O)NC2=O)c2cn(c3ccccc23)CCO1 [Acetate],7.80,0.9,1,98.6,99.2,100.2,100.6,99.4,0.77,1.44,0.3,–
CN(C)C[C@@H]1CCn2cc(c3ccccc32)C2=C(C(=O)NC2=O)c2cn(c3ccccc23)CCO1 [HCl],4.98,249,–,98.2,99.3,100.4,100.6,98.7,1.42,0.9,1.3,aqueous solubility (physchem; water): 268 µg/mL
"CN(C)C[C@@H]1CCn2cc(c3ccccc32)C2=C(C(=O)NC2=O)c2cn(c3ccccc23)CCO1 [Mesylate, (S)-13-[(dimethylamino)methyl]-10,11,14,15-tetrahydro-4,9:16,21-dimetheno-1H, 13H-dibenzo[E,K]pyrrolo[3,4-H][1,4,13]oxadiazacyclohexadecine-1,3(2H)-dione]",4.69,1460,–,98.5,99.4,100.7,104.4,99.0,3.97,–,3.6,"effect of chloride on aqueous solubility (physchem): drops markedly with the addition of chloride; effect of pH on aqueous solubility (physchem): drops markedly at either higher or lower pH; pH of optimal aqueous solubility (physchem): 4.0 to 5.0 pH; aqueous solubility (physchem; water): 1760 µg/mL; solubility (physchem; water, pH 4.5, water, aqueous solubility at most preferred pH): 2250 µg/mL; IC50 (Protein Kinase C): < 10 µM; activity and isozyme selectivity (Protein Kinase C): active and isozyme selective; increase in plasma concentration of the compound and the metabolite ([4]; dog, in vivo, po, 20 mg/kg): approximately 260%; plasma concentrations of compound and metabolite vs HCl salt ([4]; each dog, equivalent oral dose): Higher plasma concentrations"
CN(C)C[C@@H]1CCn2cc(c3ccccc32)C2=C(C(=O)NC2=O)c2cn(c3ccccc23)CCO1 [Phosphate],3.78,609,736,98.6,102.6,105.5,106.6,98.2,5.50,–,4.6,hygroscopicity ranking ([1]; vacuum to 80% RH): most hygroscopic; TGA weight loss 20-100° C. ([2]; listed as phosphate): 5.50 % wt loss
CN(C)C[C@@H]1CCn2cc(c3ccccc32)C2=C(C(=O)NC2=O)c2cn(c3ccccc23)CCO1 [Succinate],7.72,0.4,0.5,98.5,99.1,100.0,100.5,99.3,0.73,1.90,0.2,–
CN(C)C[C@@H]1CCn2cc(c3ccccc32)C2=C(C(=O)NC2=O)c2cn(c3ccccc23)CCO1 [Sulfate],2.57,12,14,98.4,99.8,100.9,101.9,98.9,5.50,–,4.9,TGA weight loss 20-100° C. ([2]; listed as sulfate): 5.50 % wt loss
CN(C)C[C@@H]1CCn2cc(c3ccccc32)C2=C(C(=O)NC2=O)c2cn(c3ccccc23)CCO1 [Tartrate],3.77,54,71,98.2,101.3,103.8,105.4,97.9,5.50,–,5.1,TGA weight loss 20-100° C. ([2]; listed as tartrate): 5.50 % wt loss
